{"source": "patent US9206432B2", "about": "“Sulfonylurea-responsive repressor proteins” (priority 2008, dated 2015)", "key": {"[1]": {"details": "pH 7; cited from earlier work"}, "tet operator (tetO)": {"system": "tet operator (tetO)", "assay": "Electrophoretic gel mobility shift assay (EMSA), operator binding and release by inducer", "details": "ethametsulfuron repressor protein (L7A11) on TetO (FIG. 7)"}, "[2]": {"system": "lacZ under control of the tetA promoter (PtetA) in E. coli KM3", "type": "cell-based", "details": "L1 hits, SU compounds at 20 μg/ml"}}, "data": [{"compound": "COC(=O)c1sccc1S(=O)(=O)NC(=O)Nc1nc(C)nc(OC)n1", "note": "[Harmony®, Thifensulfuron-methyl]", "values": [{"measurement": "logP", "setting": "[1]", "result": "~0.02"}]}, {"compound": "Cc1c2c(c(O)c3c(O)cccc13)C(=O)[C@]1(O)C(=O)C(C(N)=O)=C(O)[C@@H](N(C)C)[C@@H]1C2", "note": "[atc, anhydrotetracycline]", "values": [{"measurement": "operator release by inducer", "setting": "tet operator (tetO)", "result": "No change in operator release"}]}, {"compound": "CCOC(=O)c1ccccc1S(=O)(=O)NC(=O)Nc1nc(Cl)cc(OC)n1", "note": "[chlorimuron, Chlorimuron-ethyl, reference compound]", "values": [{"measurement": "potency as activator compared with Harmony®", "setting": "[2]", "result": "more potent activators than the starting ligand Harmony®"}]}, {"compound": "COc1nc(C)nc(NC(=O)NS(=O)(=O)c2ccccc2Cl)n1", "note": "[chlorsulfuron, 2 chloro N ((4 methoxy 6 methy 1,3,5 triazine 2 yl)aminocarbonyl)benzenesulfonamide, reference compound]", "values": [{"measurement": "potency as activator compared with Harmony®", "setting": "[2]", "result": "more potent activators than the starting ligand Harmony®"}]}, {"compound": "CCOc1nc(NC)nc(NC(=O)NS(=O)(=O)c2ccccc2C(=O)OC)n1", "note": "[ethametsulfuron, Ethametsulfuron-methyl, reference compound]", "values": [{"measurement": "potency as activator compared with Harmony®", "setting": "[2]", "result": "more potent activators than the starting ligand Harmony®"}, {"measurement": "operator release by inducer", "setting": "tet operator (tetO)", "result": "inducer preference for operator release by Es compared to Cs"}]}]}
